Data taken from patent publication US5284838A, “Use of 2,2-dimethylchroman-3-ol derivatives in the treatment of asthma” (Elf Sanofi, priority 1987, dated 1994).
pIC50: −log10 of the molar value. Like-named read-outs stand apart in the source and are kept apart here.

Experiments:
[1] = system: Vigilant Spontaneously Hypertensive Rats (SHR); test: Antihypertensive Activity on Vigilant Spontaneously Hypertensive Rats (SHR); assay type: in vivo, male SHR (of the Wistar strain) rats; conditions: for duration of action compared with Product A: p.o.
Procedure: The experiment is performed on male SHR (of the Wistar strain) aged between 11 and 12 weeks; under pentobarbital anesthesia, a catheter is implanted in a carotid artery on the day before the experiment. In the experiment, the diastolic pressure (DP) and systolic pressure (SP) of the vigilant animals are recorded continuously 1 hour before and up to 2 hours after administration of the product. The heart rate (HR) is determined from the pulse pressure and recorded continuously for the same time.
The products were administered orally in a volume of 2 ml per 100 g of body weight after suspension in a 5% aqueous solution of gum arabic.

Isolated Rat Portal Vein = test: Isolated Rat Portal Vein: inhibition of spontaneous contractile activities; assay type: cell-based, Male Sprague Dawley rats; conditions: for pIC50: Rattus norvegicus, 0.25 h; for times more active than Product A: relative to Product A, isolated rat portal vein
Procedure: Male Sprague Dawley rats (250-300 g) are stunned and then bled after their throats have been cut. The portal vein, ligated in situ at two points 15 mm apart, is isolated, cut longitudinally and then mounted vertically in an experimental cell containing a physiological solution, at 37° C., of the following composition (mmol/l): NaCl:137; KCl: 5.4; MgCl2 : 1.05; CaCl2 : 1.8; NaH2 PO4 : 1.2; NAHCO3 : 15.5; glucose: 11.5, into which a mixture of gases containing 95% of oxygen and 5% of carbon dioxide is bubbled.
The vein is subjected to a tension of 500 mg. After a period of stabilization (about 1 h 30 min), the spontaneous contractile activities are recorded with the aid of an isometric sensor. Each measurement is performed successively on 4 preparations.
The results are expressed in the form of the molar concentration which causes a 50 per cent inhibition of the spontaneous contractile activities (IC50).

mice = test: Acute toxicity on mice by oral administration; assay type: in vivo; conditions: 1000 mg/kg, 10 mice
[2] = system: Guinea-pig Papillary Muscle; test: Guinea-pig Papillary Muscle: ventricular action potential; assay type: cell-based, Male Albino Charles River guinea-pigs; conditions: Cavia porcellus, 0.5 h; 36° C., 60 beats per minute, 30 minutes of perfusion per concentration; read-out: Duration of the action potential: IC50 (50 per cent reduction in the duration of the AP)
Procedure: Male Albino Charles River guinea-pigs (300-400 g) are stunned and then bled after their throats have been cut. The heart is isolated and opened and the right papillary muscle is excised and then kept alive in an experimental cell containing a physiological solution at 36° C. (composition described above).
The preparation is stimulated with the aid of a bipolar electrode connected to a stimulator (frequency=60 beats per minute). The ventricular action potential is measured by the conventional microelectrode method. The characteristic parameters were measured on the action potentials (AP) before and after the introduction of the test product at 3 successive increasing concentrations (30 minutes of perfusion per concentration). The concentration which produces a 50 per cent reduction in the duration of the AP is indicated (IC50).

Vigilant Dogs = test: Antiarrhythmic Activity on Vigilant Dogs; assay type: in vivo; conditions: orally
Procedure: The method used is that described by Dupuis et al. (Br. J. Pharmacol., 1976, 58, p. 409), in which an acute infarction is caused by the insertion of a copper spiral into the coronary circulation, with the thorax closed off. The electrocardiogram is measured by telemetry and the extrasystoles are analyzed and counted automatically while the animal is being monitored by an internal television circuit. The products were administered orally to animals presenting at least 50 percent of extrasystoles.

[3] = 37° C., 15 min per concentration, read-out: IC50 of the spontaneous contractile activities of isolated rat portal vein
[4] = unit inferred, read-out: IC50 values equal to or less than (isolated rat portal vein)

Row | pIC50 (Isolated Rat Portal Vein; [3]) | pIC50 (Isolated Rat Portal Vein; [4]) | Structure (SMILES) | Maximum decrease in mean blood pressure (±s.e.) ([1]; 0.03 mg/kg p.o.) | Maximum decrease in mean blood pressure (±s.e.) ([1]; 0.10 mg/kg p.o.) | pIC50 [2] | times more active than Product A (Isolated Rat Portal Vein) | other results
1 | 6.89 | – | CC1(C)Oc2ccc(C#N)cc2[C@@H](n2ncccc2=O)[C@@H]1O (relative stereo) [SR 44 758, trans-6-Cyano-4-(1,6-dihydro-6-oxopyridazin-1-yl)-2,2-dimethylchroman-3-ol] | 12 ± 2 mm of mercury | 33 ± 5 mm of mercury | – | – | –
2 | 7.47 | ≥ 7.47 | CC1(C)Oc2ccc(C#N)cc2[C@@H](n2ccc(O)cc2=O)[C@@H]1O (relative stereo) [SR 44 793, trans-6-Cyano-4-(I,2-dihydro-4-hydroxy-2-oxopyrid-1-yl)-2,2-dimethylchroman-3-ol] | 22 ± 2 mm of mercury | 50 ± 9 mm of mercury | 5.57 | at least 5 times | Maximum decrease in mean blood pressure (±s.e.) ([1]; 0.06 mg/kg p.o.): 26 ± 3 mm of mercury; duration of action compared with Product A [1]: longer duration of action than Product A; antiarrhythmic activity (reducing the number of extrasystoles or restoring a sinus rhythm) (Vigilant Dogs; between 0.1 and 0.5 mg/kg): substantial antiarrhythmic activity
3 | 8.05 | ≥ 7.47 | CC1(C)Oc2ccc(C#N)cc2[C@@H](n2nc(O)ccc2=O)[C@@H]1O (relative stereo) [SR 44 994, trans-6-Cyano-4-(I,6-dihydro-3-hydroxy-6-oxopyridazin-1-yl)-2,2-dimethylchroman-3-ol] | 14 ± 0 mm of mercury | 37 ± 4 mm of mercury | 5.40 | at least 5 times | duration of action compared with Product A [1]: longer duration of action than Product A
4 | 7.59 | ≥ 7.47 | CC1(C)Oc2ccc(C#N)cc2[C@@H](n2ccc(Cl)cc2=O)[C@@H]1O (relative stereo) [SR 45 012] | – | – | – | at least 5 times | –
5 | 7.11 | – | CC1(C)Oc2ccc(C#N)cc2[C@@H](n2ccncc2=O)[C@@H]1O (relative stereo) [SR 45 067] | – | – | – | – | –
6 | 7.10 | – | Cc1ccn([C@@H]2c3cc(C#N)ccc3OC(C)(C)[C@H]2O)c(=O)c1 (relative stereo) [SR 45 135] | – | – | – | – | –
7 | 7.24 | – | Cc1cc(O)nn([C@@H]2c3cc(C#N)ccc3OC(C)(C)[C@H]2O)c1=O (relative stereo) [SR 45 209, trans-6-Cyano-4-(I,6-dihydro-3-hydroxy-5-methyl-6-oxopyridazin-1-yl)-2,2-dimethylchroman-3-ol] | – | – | – | – | –
8 | 7.70 | ≥ 7.47 | Cc1cc(=O)n([C@@H]2c3cc(C#N)ccc3OC(C)(C)[C@H]2O)nc1O (relative stereo) [SR 45 218, trans-6-Cyano-4-(I,6-dihydro-3-hydroxy-4-methyl-6-oxopyridazin-1-yl)-2,2-dimethylchroman-3-ol] | – | – | – | at least 5 times | –
9 | 7.06 | – | Cc1ccc(=O)n([C@@H]2c3cc(C#N)ccc3OC(C)(C)[C@H]2O)n1 (relative stereo) [SR 45 225, trans-6-Cyano-4-(I,6-dihydro-3-methyl-6-oxopyridazin-1-yl)-2,2-dimethylchroman-3-ol] | – | – | – | – | –
10 | 7.30 | – | CC1(C)Oc2ccc(C#N)cc2[C@@H](n2ccc(F)cc2=O)[C@@H]1O (relative stereo) [SR 45 311, trans-6-Cyano-4-(1,2-dihydro-4-fluoro-2-oxopyrid-1-yl)-2,2-dimethylchroman-3-ol] | – | – | – | – | –

Row | Structure (SMILES) | pIC50 (Isolated Rat Portal Vein; [3]) | pIC50 (Isolated Rat Portal Vein; [4]) | Maximum decrease in mean blood pressure (±s.e.) ([1]; 0.03 mg/kg p.o.) | Maximum decrease in mean blood pressure (±s.e.) ([1]; 0.10 mg/kg p.o.) | pIC50 [2] | times more active than Product A (Isolated Rat Portal Vein) | other results
11 | CC1(C)Oc2ccc(C#N)cc2[C@@H](N2CCCC2=O)[C@@H]1O (relative stereo) [Product A, trans-6-Cyano-4-(2-oxopyrrolidin-1-yl)-2,2-dimethylchroman-3-ol, reference compound] | 7.17 | – | 16 ± 5 mm of mercury | 30 ± 10 mm of mercury | 4.80 | – | acute toxicity: survival / death of the animals (mice): all 10 animals died
12 | CC1(C)Oc2ccc(C#N)cc2[C@@H](n2ccccc2=O)[C@@H]1O (relative stereo) [SR 44 709, trans-6-Cyano-4-(I,2-dihydro-2-oxopyrid-1-yl)2,2-dimethylchroman-3-ol] | 7.05 | – | – | 39 ± 12 mm of mercury | 4.70 | – | Maximum decrease in mean blood pressure (±s.e.) ([1]; 0.06 mg/kg p.o.): 21 ± 5 mm of mercury; acute toxicity: survival / death of the animals (mice): all the animals survived; antiarrhythmic activity (reducing the number of extrasystoles or restoring a sinus rhythm) (Vigilant Dogs; 1 mg/kg): substantial antiarrhythmic activity
